Experimental data as given in the supplement of paper PMC10307832.

Tests used:
Experiment in all cases: relative viability (nuclei count vs DMSO), 5 days (fraction); higher = more cells survive
Indole-3-carbinol = compound: OCc1c[nH]c2ccccc12 [Indole-3-carbinol]
How it was run: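 Viability was defined as treated-well nuclei divided by vehicle-well nuclei, with the median taken over replicate plates. Cells from lung cancer lines sat overnight at 37 °C in 1536-well plates, received five √10-spaced library-drug doses by pinning on vehicle-anchored plates, and grew 5 days without medium change before one-step fixation, permeabilisation and Hoechst staining, 4× imaging and MetaXpress nuclear counts. Only plates with control CV under 25% and at least one doubling were kept.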

[1] = compound: OCc1c[nH]c2ccccc12 [Indole-3-carbinol] + CC(C)C[C@H](NC(=O)[C@H](Cc1ccccc1)NC(=O)c1cnccn1)B(O)O [Bortezomib] (partner 0.002 µM)
How it was run: (§1)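 Relative viability divides the nuclei count in treated wells by that in vehicle wells. Lung cancer cell lines were seeded in 1536-well plates, dosed by pin tool the next day, and fixed and stained after 5 days in one step with final 0.05% Triton X-100, 1% formaldehyde and 1 ug/ml Hoechst. Dosing was a single drug or a fixed anchor-drug dose plus five library-drug doses (not always all listed) in √10 steps, and values are medians of duplicate plates imaged at 4×.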

[2] = compound: OCc1c[nH]c2ccccc12 [Indole-3-carbinol] + CS(=O)(=O)N1CCN(Cc2cc3nc(-c4cccc5[nH]ncc45)nc(N4CCOCC4)c3s2)CC1 [Pictilisib] (partner 1 µM)
How it was run: as §1

[3] = compound: OCc1c[nH]c2ccccc12 [Indole-3-carbinol] + CC1(C)CCC(c2ccc(Cl)cc2)=C(CN2CCN(c3ccc(C(=O)NS(=O)(=O)c4ccc(N[C@H](CCN5CCOCC5)CSc5ccccc5)c(S(=O)(=O)C(F)(F)F)c4)cc3)CC2)C1 [Navitoclax] (partner 0.5 µM)
How it was run: as §1

[4] = compound: OCc1c[nH]c2ccccc12 [Indole-3-carbinol] + N=C(N)NC(=N)NCCc1ccccc1 [Phenformin] (partner 250 µM)
How it was run: as §1

[5] = compound: OCc1c[nH]c2ccccc12 [Indole-3-carbinol] + COc1cc2c(Oc3ccc(NC(=O)C4(C(=O)Nc5ccc(F)cc5)CC4)cc3F)ccnc2cc1OCCCN1CCOCC1 [Foretinib] (partner 0.25 µM)
How it was run: as §1

[6] = compound: OCc1c[nH]c2ccccc12 [Indole-3-carbinol] + Cc1nc(Nc2ncc(C(=O)Nc3c(C)cccc3Cl)s2)cc(N2CCN(CCO)CC2)n1 [Dasatinib] (partner 0.075 µM)
How it was run: as §1

[7] = compound: OCc1c[nH]c2ccccc12 [Indole-3-carbinol] + O=C(CCCCCCC(=O)Nc1ccccc1)NO [Vorinostat] (partner 1 µM)
How it was run: as §1

[8] = compound: OCc1c[nH]c2ccccc12 [Indole-3-carbinol] + O=C(c1cc(Cc2n[nH]c(=O)c3ccccc23)ccc1F)N1CCN(C(=O)C2CC2)CC1 [Olaparib] (partner 8 µM)
How it was run: as §1

[9] = compound: OCc1c[nH]c2ccccc12 [Indole-3-carbinol] + CS(=O)(=O)CCNCc1ccc(-c2ccc3ncnc(Nc4ccc(OCc5cccc(F)c5)c(Cl)c4)c3c2)o1 [Lapatinib] (partner 2 µM)
How it was run: as §1

[10] = compound: OCc1c[nH]c2ccccc12 [Indole-3-carbinol] + C[C@@H](Oc1cc(-c2cnn(C3CCNCC3)c2)cnc1N)c1c(Cl)ccc(F)c1Cl [Crizotinib] (partner 1 µM)
How it was run: as §1

[11] = compound: OCc1c[nH]c2ccccc12 [Indole-3-carbinol] + CCNC(=O)c1noc(-c2cc(C(C)C)c(O)cc2O)c1-c1ccc(CN2CCOCC2)cc1 [Luminespib] (partner 0.01 µM)
How it was run: as §1

[12] = compound: OCc1c[nH]c2ccccc12 [Indole-3-carbinol] + Cc1cc(Nc2cc(N3CCN(C)CC3)nc(Sc3ccc(NC(=O)C4CC4)cc3)n2)n[nH]1 [Tozasertib] (partner 0.1 µM)
How it was run: as §1

[13] = compound: OCc1c[nH]c2ccccc12 [Indole-3-carbinol] + Nc1ncn([C@H]2C[C@H](O)[C@@H](CO)O2)c(=O)n1 [Decitabine] (partner 2 µM)
How it was run: as §1

[14] = compound: OCc1c[nH]c2ccccc12 [Indole-3-carbinol] + CC(=O)Nc1cccc(-n2c(=O)n(C3CC3)c(=O)c3c(Nc4ccc(I)cc4F)n(C)c(=O)c(C)c32)c1 [Trametinib] (partner 0.02 µM)
How it was run: as §1

[15] = compound: OCc1c[nH]c2ccccc12 [Indole-3-carbinol] + CC(=O)c1c(C)c2cnc(Nc3ccc(N4CCNCC4)cn3)nc2n(C2CCCC2)c1=O [Palbociclib] (partner 0.5 µM)
How it was run: as §1

[16] = compound: OCc1c[nH]c2ccccc12 [Indole-3-carbinol] + Nc1nc2[nH]cc(CCc3ccc(C(=O)N[C@@H](CCC(=O)O)C(=O)O)cc3)c2c(=O)[nH]1 [Pemetrexed] (partner 0.2 µM)
How it was run: as §1

[17] = compound: OCc1c[nH]c2ccccc12 [Indole-3-carbinol] + COc1cccc2cc(-c3nc([C@H]4CC[C@H](C(=O)O)CC4)n4ncnc(N)c34)[nH]c12 [OSI-027] (partner 0.5 µM)
How it was run: as §1

## NCI-H1650
Indole-3-carbinol; 0.253 µM
  relative viability: 1.03
Indole-3-carbinol; 0.8 µM
  relative viability: 0.794
Indole-3-carbinol; 2.53 µM
  relative viability: 0.943
Indole-3-carbinol; 8 µM
  relative viability: 0.882
[1]; first compound 0.253 µM
  relative viability: 0.19
[1]; first compound 0.8 µM
  relative viability: 0.192
[1]; first compound 2.53 µM
  relative viability: 0.207
[1]; first compound 8 µM
  relative viability: 0.194
[2]; first compound 0.253 µM
  relative viability: 0.521
[2]; first compound 0.8 µM
  relative viability: 0.399
[2]; first compound 2.53 µM
  relative viability: 0.547
[2]; first compound 8 µM
  relative viability: 0.6
[3]; first compound 0.253 µM
  relative viability: 1.32
[3]; first compound 0.8 µM
  relative viability: 1.16
[3]; first compound 2.53 µM
  relative viability: 1.26
[3]; first compound 8 µM
  relative viability: 1.1
[4]; first compound 0.253 µM
  relative viability: 0.42
[4]; first compound 2.53 µM
  relative viability: 0.462
[4]; first compound 8 µM
  relative viability: 0.356
[5]; first compound 0.253 µM
  relative viability: 0.987
[5]; first compound 2.53 µM
  relative viability: 1.08
[5]; first compound 8 µM
  relative viability: 1.3
[6]; first compound 0.253 µM
  relative viability: 0.335
[6]; first compound 2.53 µM
  relative viability: 0.324
[6]; first compound 8 µM
  relative viability: 0.304
[7]; first compound 0.253 µM
  relative viability: 0.535
[7]; first compound 0.8 µM
  relative viability: 0.623
[7]; first compound 2.53 µM
  relative viability: 0.657
[7]; first compound 8 µM
  relative viability: 0.676
[8]; first compound 0.253 µM
  relative viability: 0.736
[8]; first compound 0.8 µM
  relative viability: 0.889
[8]; first compound 2.53 µM
  relative viability: 0.92
[8]; first compound 8 µM
  relative viability: 0.768
[9]; first compound 0.253 µM
  relative viability: 0.892
[9]; first compound 0.8 µM
  relative viability: 0.561
[9]; first compound 2.53 µM
  relative viability: 0.875
[9]; first compound 8 µM
  relative viability: 0.716
[10]; first compound 0.253 µM
  relative viability: 0.907
[10]; first compound 0.8 µM
  relative viability: 1.02
[10]; first compound 2.53 µM
  relative viability: 1.16
[10]; first compound 8 µM
  relative viability: 0.968
[11]; first compound 0.253 µM
  relative viability: 0.167
[11]; first compound 2.53 µM
  relative viability: 0.19
[11]; first compound 8 µM
  relative viability: 0.221
[12]; first compound 0.253 µM
  relative viability: 0.371
[12]; first compound 2.53 µM
  relative viability: 0.364
[12]; first compound 8 µM
  relative viability: 0.473
[13]; first compound 0.253 µM
  relative viability: 0.412
[13]; first compound 0.8 µM
  relative viability: 0.352
[13]; first compound 2.53 µM
  relative viability: 0.493
[13]; first compound 8 µM
  relative viability: 0.34
[14]; first compound 0.253 µM
  relative viability: 0.565
[14]; first compound 0.8 µM
  relative viability: 0.563
[14]; first compound 2.53 µM
  relative viability: 0.561
[14]; first compound 8 µM
  relative viability: 0.498
[15]; first compound 0.253 µM
  relative viability: 0.376
[15]; first compound 0.8 µM
  relative viability: 0.341
[15]; first compound 2.53 µM
  relative viability: 0.338
[15]; first compound 8 µM
  relative viability: 0.351
[16]; first compound 0.253 µM
  relative viability: 0.377
[16]; first compound 0.8 µM
  relative viability: 0.328
[16]; first compound 2.53 µM
  relative viability: 0.47
[16]; first compound 8 µM
  relative viability: 0.449
[17]; first compound 0.253 µM
  relative viability: 0.597
[17]; first compound 2.53 µM
  relative viability: 0.601
[17]; first compound 8 µM
  relative viability: 0.647
